# Measurements taken from ChEMBL document CHEMBL1671777, “X-ray crystal structure and binding mode analysis of human S-adenosylhomocysteine hydrolase complexed with novel mechanism-based inhibitors, haloneplanocin A analogues” (J Med Chem, 2011).
# pIC50: −log10 of the molar value.
# Molecular target: Adenosylhomocysteinase (Homo sapiens, UniProt P23526)
# Experiment: Inhibition of human placental AdoHcy hydrolase expressed in Escherichia coli JM109
# Chain of Adenosylhomocysteinase (P23526 whole entry): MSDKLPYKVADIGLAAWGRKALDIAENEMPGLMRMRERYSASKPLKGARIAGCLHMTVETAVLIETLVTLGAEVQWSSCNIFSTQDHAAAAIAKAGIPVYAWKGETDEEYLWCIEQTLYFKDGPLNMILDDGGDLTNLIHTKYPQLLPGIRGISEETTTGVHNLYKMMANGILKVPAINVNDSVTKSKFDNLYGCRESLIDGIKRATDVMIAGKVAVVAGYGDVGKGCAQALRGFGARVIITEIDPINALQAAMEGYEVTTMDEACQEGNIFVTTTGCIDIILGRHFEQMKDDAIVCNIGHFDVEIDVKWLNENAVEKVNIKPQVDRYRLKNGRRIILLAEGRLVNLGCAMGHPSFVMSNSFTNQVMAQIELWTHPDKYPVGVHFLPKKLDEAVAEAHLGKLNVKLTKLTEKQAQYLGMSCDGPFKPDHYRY
row,pIC50,Structure (SMILES)
1,< 3.00,Nc1ncnc2c1ncn2[C@@H]1C(I)=C(CO)[C@@H](O)[C@H]1O
2,5.12,Nc1ncnc2c1ncn2[C@@H]1C(F)=C[C@@H](O)[C@H]1O
3,5.23,Nc1ncnc2c1ncn2[C@@H]1C=C[C@@H](O)[C@H]1O
4,< 3.00,Nc1ncnc2c1ncn2[C@@H]1C(I)=C[C@@H](O)[C@H]1O
5,6.06,Nc1ncnc2c1ncn2[C@@H]1C=C(CO)[C@@H](O)[C@H]1O [NEOPLANOCIN A]
6,4.22,Nc1ncnc2c1ncn2[C@@H]1C(Br)=C(CO)[C@@H](O)[C@H]1O
7,4.44,Nc1ncnc2c1ncn2[C@@H]1C(Cl)=C(CO)[C@@H](O)[C@H]1O
8,< 3.00,Nc1ncnc2c1ncn2[C@@H]1C(Cl)=C[C@@H](O)[C@H]1O
9,< 3.00,Nc1ncnc2c1ncn2[C@@H]1C(Br)=C[C@@H](O)[C@H]1O
